Experimental findings from publication PMC10478824, “Development of FAPI Tetramers to Improve Tumor Uptake and Efficacy of FAPI Radioligand Therapy” (Journal of Nuclear Medicine, 2023) are described below.

One data set relates to U87MG tumors. The data set can be described thus: FAP-targeted radioligand therapy in U87MG tumor-bearing mice. The class given is in vivo. Particulars: 29.6 MBq every 72 h, 3 doses. On the procedure: (§1) All animal experimental procedures were approved by the Animal Care and Ethics Committee of Xiamen University and performed in accordance with the Guidelines for the Care and Use of Animals of the Xiamen University Laboratory Animal Center. For in vivo experiments, 6-wk-old BALB/c nude mice (Beijing Vital River Laboratory Animal Technology Co., Ltd.) were subcutaneously inoculated with HT-1080-FAP or U87 cells (5 × 10^6 in 100 μL of phosphate-buffered saline) in the right shoulder.
When the tumor volume reached approximately 100 mm^3, the mice were randomized into 4 groups for radioligand therapy with ^177Lu-labeled monomeric, dimeric, and tetrameric FAPIs (6/group): group A, saline; group B, 29.6 MBq of ^177Lu-FAPI-46; group C, 29.6 MBq of ^177Lu-DOTA-2P(FAPI)2; and group D, 29.6 MBq of ^177Lu-DOTA-4P(FAPI)4. […] HT-1080-FAP, a FAP-transfected tumor xenograft with much higher levels of FAP expression than U87MG, was also used in this study. Therefore, the frequency of administration was higher in U87MG tumor–bearing mice (every 72 h, 3 doses in total) than in the HT-1080-FAP models (a single dose). Weight and tumor volume were monitored every 2 d, and the mice were euthanized when the average tumor volume exceeded 1,500 mm^3, when the tumor was ulcerated, or when weight loss was more than 20%. […]

The nature of data set [1]: In vitro stability in phosphate-buffered saline and fetal bovine serum (radio-HPLC). Particulars: 24 h incubation in phosphate-buffered saline and fetal bovine serum. It is filed as in vitro ADME.
Data set [2] relates to HT-1080-FAP tumors. As to the kind of experiment: Ex vivo biodistribution of ^177Lu-labeled FAPIs in HT-1080-FAP tumor-bearing mice. The following applies: for tumor uptake: HT-1080-FAP tumors. As to the method:
as §1
Three groups of HT-1080-FAP mice were injected with 0.74 MBq of ^177Lu-FAPI-46, ^177Lu-DOTA-2P(FAPI)2, or ^177Lu-DOTA-4P(FAPI)4 and were euthanized at different time points (24–48 h for monomers and 24–96 h for dimers and tetramers, 3/group). Blood, tumor, muscle, and major organs were weighed and measured using a γ-counter (WIZARD^2 2480). Data were normalized to the percentage injected dose per gram (%ID/g) using 1% of total counts.

The test system of data set [3] is HT-1080-FAP tumors. As to the kind of experiment: FAP-targeted radioligand therapy in HT-1080-FAP tumor-bearing mice. The class given is in vivo. As to the method: as §1
When the tumor volume reached approximately 100 mm^3, the mice were randomized into 4 groups for radioligand therapy with ^177Lu-labeled monomeric, dimeric, and tetrameric FAPIs (6/group): group A, saline; group B, 29.6 MBq of ^177Lu-FAPI-46; group C, 29.6 MBq of ^177Lu-DOTA-2P(FAPI)2; and group D, 29.6 MBq of ^177Lu-DOTA-4P(FAPI)4. […] HT-1080-FAP, a FAP-transfected tumor xenograft with much higher levels of FAP expression than U87MG, was also used in this study. Therefore, the frequency of administration was higher in U87MG tumor–bearing mice (every 72 h, 3 doses in total) than in the HT-1080-FAP models (a single dose). Weight and tumor volume were monitored every 2 d, and the mice were euthanized when the average tumor volume exceeded 1,500 mm^3, when the tumor was ulcerated, or when weight loss was more than 20%. To further assess radioligand therapy–related toxicity effects, the main organs were collected from the ^177Lu-DOTA-4P(FAPI)4 group on day 22 […] hematoxylin and eosin staining ([16]).

[4] abbreviates: HT-1080-FAP tumor-bearing mice, 48 h after injection.

SMILES strings stand for the structures.

Turning to `CN(CCCN1CCN(C(=O)COCCOCCOCCNC(=O)CCC(=O)NCCCC[C@H](NC(=O)CCC(=O)NCCOCCOCCOCC(=O)N2CCN(CCCN(C)c3ccc4nccc(C(=O)NCC(=O)N5CC(F)(F)C[C@H]5C#N)c4c3)CC2)C(=O)NCCCC[C@H](NC(=O)[C@H](CCCCNC(=O)CN2CCN(CC(=O)[O-])CCN(CC(=O)[O-])CCN(CC(=O)[O-])CC2)NC(=O)CCC(=O)NCCOCCOCCOCC(=O)N2CCN(CCCN(C)c3ccc4nccc(C(=O)NCC(=O)N5CC(F)(F)C[C@H]5C#N)c4c3)CC2)C(=O)NCCOCCOCCOCC(=O)N2CCN(CCCN(C)c3ccc4nccc(C(=O)NCC(=O)N5CC(F)(F)C[C@H]5C#N)c4c3)CC2)CC1)c1ccc2nccc(C(=O)NCC(=O)N3CC(F)(F)C[C@H]3C#N)c2c1.[177Lu+3]` [^177Lu-DOTA-4P(FAPI)4], in the data set on U87MG tumors, the median survival entry was “not reached”. Besides, the tumor volume in the data set with U87MG tumors (day 14 after treatment) was determined as 140.28 ± 76.36 mm^3. Further, the entries for the “in vitro stability (demetallation / free radioactivity)” value in data set [1] and in data set [1] (listed as 177Lu-DOTA-4P[FAPI]4) were “highly stable” and “neither significant demetallation nor free radioactivity was observed”, respectively. Moreover, in the data set on HT-1080-FAP tumors [2] (setting [4]), the kidney uptake amounted to 6.6 ± 0.2 %ID/g. The same compound displayed a liver uptake with HT-1080-FAP tumors [2] (setting [4]) of 6.3 ± 0.5 %ID/g. Also, in the data set with HT-1080-FAP tumors [2] (setting [4]), the spleen uptake was found to be 5.1 ± 0.7 %ID/g. The tumor uptake in the data set on HT-1080-FAP tumors [2] (24 h after injection) came to 21.4 ± 1.7 %ID/g; in the data set with HT-1080-FAP tumors [2] (48 h after injection), 19.2 ± 0.6 %ID/g; with HT-1080-FAP tumors [2] (72 h after injection), 18.8 ± 2.1 %ID/g; in the data set on HT-1080-FAP tumors [2] (96 h after injection), 14.8 ± 0.9 %ID/g. For the same compound, the “systemic toxicity by monitoring body weight” value with HT-1080-FAP tumors [3] (HT-1080-FAP tumor-bearing mice, 29.6 MBq) is “No systemic toxicity”. The “tumor growth after radioligand therapy” value in the data set with HT-1080-FAP tumors [3] (HT-1080-FAP, single dose 29.6 MBq) was “significant inhibition of tumor growth”. The “hematoxylin and eosin staining of selected nontarget organs” value with HT-1080-FAP tumors [3] (organs collected on day 22, versus control) is “no differences between the control and radioligand therapy groups”.
